Biological target: T1, BK channels heterologously expressed in Xenopus laevis oocytes (Homo sapiens, UniProt Q12791)
T1 construct: expressed in transfected cells; host or cells: Xenopus laevis oocytes
Assay: BK channel opening activity, two-electrode voltage clamp in Xenopus laevis oocytes
Assay type: cell-based
Conditions: Compound added in increasing concentrations, 1, 3 and 10 μM; step from −40 mV to +30 mV; FIG. 1
Description: The electrical current through the BK channel is measured conventional two-electrode voltage clamp. BK current is activated by repeated step protocols. In brief, this protocol goes from a resting membrane potential of −40 mV lasting for 5 s to a depolarised step to +30 mV lasting for 1 s. The protocol was repeated continuously.
Having reached a stable current level, Compound 1 was added in increasing concentrations. Between each application compound was washed out until baseline current activity was obtained.

T1 sequence (Q12791 whole entry): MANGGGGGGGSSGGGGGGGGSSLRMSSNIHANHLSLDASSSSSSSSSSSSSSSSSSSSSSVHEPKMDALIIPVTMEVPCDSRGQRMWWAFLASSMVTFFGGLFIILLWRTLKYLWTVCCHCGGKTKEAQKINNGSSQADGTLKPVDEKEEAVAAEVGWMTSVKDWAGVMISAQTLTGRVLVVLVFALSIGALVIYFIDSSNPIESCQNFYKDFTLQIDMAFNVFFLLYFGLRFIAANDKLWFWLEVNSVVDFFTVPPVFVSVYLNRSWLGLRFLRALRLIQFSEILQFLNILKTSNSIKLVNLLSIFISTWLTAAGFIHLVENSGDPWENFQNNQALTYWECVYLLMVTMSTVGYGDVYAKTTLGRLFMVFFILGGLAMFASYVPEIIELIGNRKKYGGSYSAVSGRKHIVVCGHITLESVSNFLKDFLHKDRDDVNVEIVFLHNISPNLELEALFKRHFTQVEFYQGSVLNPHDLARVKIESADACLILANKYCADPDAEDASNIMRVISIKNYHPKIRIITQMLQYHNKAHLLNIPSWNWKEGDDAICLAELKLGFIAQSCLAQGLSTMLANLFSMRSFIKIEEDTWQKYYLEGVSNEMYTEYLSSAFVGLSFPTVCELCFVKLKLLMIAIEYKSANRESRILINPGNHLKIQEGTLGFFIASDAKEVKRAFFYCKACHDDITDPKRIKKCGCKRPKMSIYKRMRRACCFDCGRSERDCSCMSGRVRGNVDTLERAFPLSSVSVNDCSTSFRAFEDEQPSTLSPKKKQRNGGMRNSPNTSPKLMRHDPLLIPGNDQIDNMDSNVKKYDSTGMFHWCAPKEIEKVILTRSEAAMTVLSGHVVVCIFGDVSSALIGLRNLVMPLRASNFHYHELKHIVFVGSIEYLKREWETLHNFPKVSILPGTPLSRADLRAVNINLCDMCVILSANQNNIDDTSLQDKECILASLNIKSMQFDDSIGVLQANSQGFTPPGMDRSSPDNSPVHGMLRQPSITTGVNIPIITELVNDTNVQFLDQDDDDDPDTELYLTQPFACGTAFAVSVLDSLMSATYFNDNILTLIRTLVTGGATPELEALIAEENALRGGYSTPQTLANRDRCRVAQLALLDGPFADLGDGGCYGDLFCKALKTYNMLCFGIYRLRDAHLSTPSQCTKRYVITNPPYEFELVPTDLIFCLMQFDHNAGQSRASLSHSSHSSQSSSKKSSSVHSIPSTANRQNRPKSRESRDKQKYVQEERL

With `FC(F)(F)c1cc(NC(=S)Nc2ccc(Br)cc2-c2nnn[nH]2)cc(C(F)(F)F)c1` [Compound 1, 1-(3,5-Bis-trifluoromethyl-phenyl)-3-[4-bromo-2-(1H-tetrazol-5-yl)-phenyl]-thiourea] the “current activated by depolarisation (BK current)” value was “marked increase”.
